Measured values from PMC12492669, “Malic enzyme-based system for transhydrogenation between nicotinamide cofactors” (Synthetic and Systems Biotechnology, 2025).

Target: T1, ME (NAD-dependent malic enzyme); ME∗ (ME mutant with L310R/Q401C) (Escherichia coli, UniProt P26616)
T1 construct: gene maeA; recombinant from E. coli BL21(DE3), pET24b-ME, Ni-NTA purified; 64 kDa
Assay: malate oxidative decarboxylation, absorbance at […] nm
Assay type: biochemical
Settings: 0.5 mM NCD, 5 mM malate, 2 mM MgCl2, 50 mM HEPES pH 7.5; weak

T1 sequence (P26616 whole entry, stated change not applied): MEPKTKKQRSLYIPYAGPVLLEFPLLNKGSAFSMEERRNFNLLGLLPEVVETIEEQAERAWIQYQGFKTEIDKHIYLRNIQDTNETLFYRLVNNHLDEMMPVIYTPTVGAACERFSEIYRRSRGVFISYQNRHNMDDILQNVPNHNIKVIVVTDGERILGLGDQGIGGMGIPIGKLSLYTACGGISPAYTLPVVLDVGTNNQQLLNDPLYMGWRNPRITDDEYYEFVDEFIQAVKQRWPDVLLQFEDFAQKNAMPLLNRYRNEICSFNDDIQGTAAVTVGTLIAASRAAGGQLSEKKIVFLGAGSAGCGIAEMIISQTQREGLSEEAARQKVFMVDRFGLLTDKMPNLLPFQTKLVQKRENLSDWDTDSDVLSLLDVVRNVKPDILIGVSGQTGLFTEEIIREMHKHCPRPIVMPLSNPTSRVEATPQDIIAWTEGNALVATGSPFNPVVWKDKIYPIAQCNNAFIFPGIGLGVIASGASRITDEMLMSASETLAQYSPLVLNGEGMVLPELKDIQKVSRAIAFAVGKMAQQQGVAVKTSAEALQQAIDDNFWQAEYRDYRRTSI

## NC(=O)c1ccc[n+]([C@@H]2O[C@H](COP(=O)([O-])OP(=O)(O)OC[C@H]3O[C@@H](n4ccc(N)nc4=O)[C@H](O)[C@@H]3O)[C@@H](O)[C@H]2O)c1 [NCD]
  malate oxidative decarboxylation, absorbance at 340 nm: ME exhibited the highest activity towards NAD and weak activity towards NCD and NADP
